Reference: patent publication US20240269139A1, “COMPOUNDS FOR TARGETED PROTEIN DEGRADATION OF KINASES” (DANA-FARBER CANCER INSTITUTE, INC., priority 2020, published 2024)
Where “and” joins values, the source holds several entries; their conditions need not be identical. Equal values may be shown once. Read-outs that look alike come from different tables or passages of the source.

What was measured:
Assay type in all cases: cell-based
[1] = molecular target: T1, protein kinases (human kinome) (Homo sapiens, UniProt Q13546)
T1 sequence (Q13546 1-671): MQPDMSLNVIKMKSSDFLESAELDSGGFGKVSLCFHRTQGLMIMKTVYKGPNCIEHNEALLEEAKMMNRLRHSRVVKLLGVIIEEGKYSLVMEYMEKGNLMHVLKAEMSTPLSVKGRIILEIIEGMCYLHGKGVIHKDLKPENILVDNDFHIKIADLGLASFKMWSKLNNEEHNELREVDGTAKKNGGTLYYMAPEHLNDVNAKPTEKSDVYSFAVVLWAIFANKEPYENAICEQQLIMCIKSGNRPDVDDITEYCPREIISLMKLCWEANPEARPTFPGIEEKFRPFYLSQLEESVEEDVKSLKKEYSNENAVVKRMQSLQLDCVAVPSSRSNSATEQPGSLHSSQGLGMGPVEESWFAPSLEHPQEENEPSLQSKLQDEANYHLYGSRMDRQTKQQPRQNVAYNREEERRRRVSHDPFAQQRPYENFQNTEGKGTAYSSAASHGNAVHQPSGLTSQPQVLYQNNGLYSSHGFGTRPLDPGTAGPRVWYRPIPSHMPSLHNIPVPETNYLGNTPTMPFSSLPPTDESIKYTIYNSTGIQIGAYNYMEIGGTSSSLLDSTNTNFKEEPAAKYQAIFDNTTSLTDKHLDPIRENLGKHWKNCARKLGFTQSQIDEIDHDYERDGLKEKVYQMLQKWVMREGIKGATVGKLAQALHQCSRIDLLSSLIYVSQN

[2] = molecular target: T2, protein kinases (human kinome) (Homo sapiens, UniProt Q8IVH8); conditions: for logFC: MAP4K3 Q8IVH8; for logFC MAP4K3: MAP4K3 Q81VH8
T2 sequence (Q8IVH8 1-894): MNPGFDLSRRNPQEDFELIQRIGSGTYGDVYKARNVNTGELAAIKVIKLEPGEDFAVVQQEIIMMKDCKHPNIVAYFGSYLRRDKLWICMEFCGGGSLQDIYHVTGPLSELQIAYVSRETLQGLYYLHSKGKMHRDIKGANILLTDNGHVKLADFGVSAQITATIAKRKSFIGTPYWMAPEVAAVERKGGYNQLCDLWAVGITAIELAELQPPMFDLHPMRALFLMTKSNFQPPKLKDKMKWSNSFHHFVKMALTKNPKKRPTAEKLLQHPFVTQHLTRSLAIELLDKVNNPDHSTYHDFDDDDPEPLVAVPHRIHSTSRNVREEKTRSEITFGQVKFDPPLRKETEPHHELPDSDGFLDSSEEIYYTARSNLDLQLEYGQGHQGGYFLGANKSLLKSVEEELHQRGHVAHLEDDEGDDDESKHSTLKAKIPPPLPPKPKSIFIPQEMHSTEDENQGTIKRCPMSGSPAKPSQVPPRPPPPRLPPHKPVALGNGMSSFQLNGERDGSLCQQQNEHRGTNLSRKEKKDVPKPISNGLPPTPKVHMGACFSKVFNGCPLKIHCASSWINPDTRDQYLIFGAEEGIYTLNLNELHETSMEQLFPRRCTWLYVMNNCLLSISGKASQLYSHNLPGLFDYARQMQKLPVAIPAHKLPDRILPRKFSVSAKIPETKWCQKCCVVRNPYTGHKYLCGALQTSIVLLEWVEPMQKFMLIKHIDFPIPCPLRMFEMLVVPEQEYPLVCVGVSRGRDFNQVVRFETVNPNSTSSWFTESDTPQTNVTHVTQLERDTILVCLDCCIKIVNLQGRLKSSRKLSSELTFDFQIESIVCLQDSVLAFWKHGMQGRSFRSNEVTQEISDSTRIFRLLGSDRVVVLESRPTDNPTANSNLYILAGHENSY

[3] = molecular target: T3, protein kinases (human kinome) (Homo sapiens, UniProt Q08881); conditions: for logFC: ITK (Q08881) protein abundance, degrader vs DMSO
T3 sequence (Q08881 1-620): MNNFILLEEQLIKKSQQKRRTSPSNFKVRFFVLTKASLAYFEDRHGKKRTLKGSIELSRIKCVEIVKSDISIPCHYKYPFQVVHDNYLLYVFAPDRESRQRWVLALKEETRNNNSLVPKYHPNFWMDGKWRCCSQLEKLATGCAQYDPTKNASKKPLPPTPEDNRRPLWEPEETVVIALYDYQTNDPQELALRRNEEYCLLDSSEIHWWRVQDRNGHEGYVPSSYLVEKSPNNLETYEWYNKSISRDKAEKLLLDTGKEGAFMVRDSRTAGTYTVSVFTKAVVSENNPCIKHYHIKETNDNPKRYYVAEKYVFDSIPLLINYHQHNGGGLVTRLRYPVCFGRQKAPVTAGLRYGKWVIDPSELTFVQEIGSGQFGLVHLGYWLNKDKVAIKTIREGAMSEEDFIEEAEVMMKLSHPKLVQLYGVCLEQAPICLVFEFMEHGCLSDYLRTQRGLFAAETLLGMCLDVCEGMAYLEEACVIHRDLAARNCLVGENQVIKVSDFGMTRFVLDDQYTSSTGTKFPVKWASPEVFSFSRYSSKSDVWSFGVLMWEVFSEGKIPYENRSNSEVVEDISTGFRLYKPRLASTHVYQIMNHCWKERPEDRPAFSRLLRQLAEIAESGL

[4] = experiment wp131, direction of change down
[5] = experiment wp016, direction of change down

For Cc1ccc(NC(=O)c2cccc(C(F)(F)F)c2)cc1N1Cc2cnc(Nc3ccc(N4CCN(Cc5cn(CCCCCOc6cccc7c6C(=O)N(C6CCC(=O)NC6=O)C7=O)nn5)CC4)nc3)nc2N(C)C1=O (stereo not shown) [DB0646, N-(3-(7-((6-(4-((1-(5-((2-(2,6-Dioxopiperidin-3-yl)-1,3-dioxoisoindolin-4-yl)oxy)pentyl)-1H-1,2,3-triazol-4-yl)methyl)piperazin-1-v)pyridin-3-yl)amino)-1-methyl-2-oxo-1,4-dihydropyrimido[4,5-d]pyrimidin-3(2H)-yl)-4-methylphenyl)-3-(trifluoromethyl)benzamide], the “logFC RIPK1 (Q13546)” value ([1]; experiment wp045) was −0.7115, the “logFC RIPK1 (Q13546)” value ([1]; experiment wp103) was −0.4796 and the “logFC RIPK1 (Q13546)” value ([1]; experiment wp105) was −0.4233. For the same molecule, the “logFC RIPK1 (Q13546)” value ([1]; experiment wp107) was −0.5121, the “logFC RIPK1 (Q13546)” value ([1]; experiment wp117) was −0.616 and the “logFC RIPK1 (Q13546)” value ([1]; experiment wp152) was −0.5495. For the same molecule, the “logFC RIPK1 (Q13546)” value ([1]; experiment wp160, 4 hr) was −0.3907 and the “logFC RIPK1 (Q13546)” value ([1]; experiment wp160, 8 hr) was −0.8745.

Cc1ccc(NC(=O)c2cccc(C(F)(F)F)c2)cc1N1Cc2cnc(Nc3ccc(N4CCN(CCCCC(=O)N[C@H](C(=O)N5C[C@H](O)C[C@H]5C(=O)N[C@@H](C)c5ccc(-c6scnc6C)cc5)C(C)(C)C)CC4)nc3)nc2N(C)C1=O [DB1113] was tested, and the “logFC RIPK1 (Q13546)” value ([1]; experiment wp168) was −1.99, the logFC ([2]; experiment wp168) was −1.385 and the “logFC MAP4K3” value ([2]; experiment wp168) was −1.385.

With Cc1ncsc1-c1ccc([C@H](C)NC(=O)[C@@H]2C[C@@H](O)CN2C(=O)[C@@H](NC(=O)CCOCCOCCN2CCN(c3ccc(Nc4ncc(Cl)c(Nc5ccccc5S(=O)(=O)C(C)C)n4)cc3)CC2)C(C)(C)C)cc1 [FMF.06.098.1] the “logFC ITK (Q08881)” value ([3]; Experiment wp108) was −0.3557, the “logFC ITK (Q08881)” value ([3]; experiment wp108, direction of change down) was −0.3557 and the “logFC ITK (Q08881)” value ([3]; experiment wp131) was −0.3625. The “logFC ITK (Q08881)” value [3, 4] was −0.3625, the logFC ([2]; experiment wp108) was −0.814 and the logFC ([2]; experiment wp114) was −0.4146. For the same molecule, the logFC ([2]; experiment wp131) was −0.7898, the “logFC MAP4K3” value ([2]; experiment wp108) was −0.814 and the “logFC MAP4K3” value ([2]; experiment wp114) was −0.4146. For the same molecule, the “logFC MAP4K3” value ([2]; experiment wp131) was −0.7898.

For Cc1ccc(C(=O)Nc2ccc(CN3CCN(CCCOCCOCCOCCNC(=O)COc4cccc5c4C(=O)N(C4CCC(=O)NC4=O)C5=O)CC3)c(C(F)(F)F)c2)cc1C#Cc1cnc2cccnn12 (stereo not shown) [SB1.G.187], the “logFC RIPK1 (Q13546)” value ([1]; Experiment wp172) was −0.9666 and −0.9656, the “logFC RIPK1 (Q13546)” value ([1]; experiment wp056) was −1.288 and the “logFC RIPK1 (Q13546)” value ([1]; experiment wp103) was −1.767. For the same molecule, the “logFC RIPK1 (Q13546)” value ([1]; experiment wp105) was −1.141 and the “logFC RIPK1 (Q13546)” value ([1]; experiment wp107) was −1.502.

In the case of CC(C)S(=O)(=O)c1ccccc1Nc1nc(Nc2ccc(N3CCN(CCOCCNC(=O)CNc4cccc5c4C(=O)N(C4CCC(=O)NC4=O)C5=O)CC3)cc2)ncc1Cl (stereo not shown) [SK.3.91], the “logFC ITK (Q08881)” value ([3]; Experiment wp103) is reported as −1.663, the “logFC ITK (Q08881)” value ([3]; Experiment wp107) is reported as −1.963 and the “logFC ITK (Q08881)” value ([3]; Experiment wp160, 2 hr) is reported as −0.799. The logFC ([3]; 2 hr, down) was −0.799, the logFC ([3]; 4 hr, down) was −1.783 and the “logFC ITK (Q08881)” value ([3]; experiment wp016) was −2.308. The “logFC ITK (Q08881)” value ([3]; experiment wp016, 1 uM) was −2.033, the “logFC ITK (Q08881)” value ([3]; experiment wp016, 1 uM, direction of change down) was −2.033 and the “logFC ITK (Q08881)” value [3, 5] was −2.308. The “logFC ITK (Q08881)” value ([3]; experiment wp103, direction of change down) was −1.663, the “logFC ITK (Q08881)” value ([3]; experiment wp107, direction of change down) was −1.963 and the “logFC ITK (Q08881)” value ([3]; experiment wp133, 1 hr) was −0.3741. The “logFC ITK (Q08881)” value ([3]; experiment wp133, 1 hr, direction of change down) was −0.3741, the “logFC ITK (Q08881)” value ([3]; experiment wp133, 2 hr) was −0.8321 and the “logFC ITK (Q08881)” value ([3]; experiment wp133, 2 hr, direction of change down) was −0.8321. For the same molecule, the “logFC ITK (Q08881)” value ([3]; experiment wp133, 4 hr) was −1.654, the “logFC ITK (Q08881)” value ([3]; experiment wp133, 4 hr, direction of change down) was −1.654 and the “logFC ITK (Q08881)” value ([3]; experiment wp160, 4 hr) was −1.783. It also gave a logFC ([2]; experiment wp105) of −0.571, a logFC ([2]; experiment wp107) of −0.8456 and a logFC ([2]; experiment wp133, 4 hr) of −0.6321. For the same molecule, the logFC ([2]; experiment wp172) was −0.7962, the “logFC MAP4K3” value ([2]; experiment wp105) was −0.571 and the “logFC MAP4K3” value ([2]; experiment wp107) was −0.8456. For the same molecule, the “logFC MAP4K3” value ([2]; experiment wp133, 4 hr) was −0.6321 and the “logFC MAP4K3” value ([2]; experiment wp172) was −0.7962.

In the case of CC(C)S(=O)(=O)c1ccccc1Nc1nc(Nc2ccc(N3CCN(CCOCCNC(=O)CNc4ccc5c(c4)C(=O)N(C4CCC(=O)NC4=O)C5=O)CC3)cc2)ncc1Cl (stereo not shown) [SK.3.93], the “logFC ITK (Q08881)” value ([3]; experiment wp016) is reported as −2.136 and the “logFC ITK (Q08881)” value [3, 5] is reported as −2.136.

For CC(C)S(=O)(=O)c1ccccc1Nc1nc(Nc2ccc(N3CCN(CCOCCOCCNC(=O)CNc4cccc5c4C(=O)N(C4CCC(=O)NC4=O)C5=O)CC3)cc2)ncc1Cl (stereo not shown) [TL12.186], the “logFC ITK (Q08881)” value ([3]; experiment wp016) was −2.342, the “logFC ITK (Q08881)” value [3, 5] was −2.342 and the “logFC ITK (Q08881)” value ([3]; experiment wp131) was −2.292. For the same molecule, the “logFC ITK (Q08881)” value [3, 4] was −2.292, the “logFC ITK (Q08881)” value ([3]; experiment wp137) was −1.973 and the “logFC ITK (Q08881)” value ([3]; experiment wp137, direction of change down) was −1.973. The logFC ([2]; experiment wp131) was −0.6275, the logFC ([2]; experiment wp137) was −0.3997 and the “logFC MAP4K3” value ([2]; experiment wp131) was −0.6275. For the same molecule, the “logFC MAP4K3” value ([2]; experiment wp137) was −0.3997.

For CC(C)S(=O)(=O)c1ccccc1Nc1nc(Nc2ccc(N3CCN(CCOCCOCCC(=O)NCCNc4cccc5c4CN(C4CCC(=O)NC4=O)C5=O)CC3)cc2)ncc1Cl (stereo not shown) [TL13.97], the logFC ([3]; direction of change down) was −2.28 and the “logFC ITK (Q08881)” value ([3]; experiment wp137) was −2.28.

Cc1ccc(C(=O)Nc2ccc(CN3CCN(CCOCCOCCNC(=O)CNc4cccc5c4C(=O)N(C4CCC(=O)NC4=O)C5=O)CC3)c(C(F)(F)F)c2)cc1C#Cc1cnc2cccnn12 (stereo not shown) [TL13.150] was tested, and the “logFC RIPK1 (Q13546)” value ([1]; experiment wp081) was −0.667.
